Read-outs that look alike come from different tables or passages of the source.

One assay deals with T1, HIS-TGFβR1 T204D (Homo sapiens, UniProt P36897, T204D).
T1 sequence (P36897 34-503 T204D): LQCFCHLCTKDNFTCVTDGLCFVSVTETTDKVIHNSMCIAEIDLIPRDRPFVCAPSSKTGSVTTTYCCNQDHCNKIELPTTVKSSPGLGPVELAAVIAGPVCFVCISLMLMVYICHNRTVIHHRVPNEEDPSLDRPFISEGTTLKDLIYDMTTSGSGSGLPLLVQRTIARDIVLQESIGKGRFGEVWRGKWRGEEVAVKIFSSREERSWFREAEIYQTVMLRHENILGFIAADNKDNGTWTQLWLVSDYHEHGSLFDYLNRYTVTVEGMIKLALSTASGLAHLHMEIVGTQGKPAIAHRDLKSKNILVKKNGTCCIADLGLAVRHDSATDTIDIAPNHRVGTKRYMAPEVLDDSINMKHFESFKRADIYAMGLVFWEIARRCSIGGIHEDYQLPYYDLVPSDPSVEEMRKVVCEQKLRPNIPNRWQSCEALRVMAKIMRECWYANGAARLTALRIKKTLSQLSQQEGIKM
The experiment in a line: HTRF probe-displacement assay, HIS-TGFβR1 T204D. It counts as binding. The note with it: read-out: TGFβR1 (μM) IC50. (TR-FRET usually uses a lanthanide donor and a delayed reading to cut background.)

A further assay addresses HIS-TGFβR2 WT (Homo sapiens, UniProt P37173). The assay is described as follows: HTRF probe-displacement assay, HIS-TGFβR2 WT. It counts as binding.

Sequence of HIS-TGFβR2 WT (P37173 23-567): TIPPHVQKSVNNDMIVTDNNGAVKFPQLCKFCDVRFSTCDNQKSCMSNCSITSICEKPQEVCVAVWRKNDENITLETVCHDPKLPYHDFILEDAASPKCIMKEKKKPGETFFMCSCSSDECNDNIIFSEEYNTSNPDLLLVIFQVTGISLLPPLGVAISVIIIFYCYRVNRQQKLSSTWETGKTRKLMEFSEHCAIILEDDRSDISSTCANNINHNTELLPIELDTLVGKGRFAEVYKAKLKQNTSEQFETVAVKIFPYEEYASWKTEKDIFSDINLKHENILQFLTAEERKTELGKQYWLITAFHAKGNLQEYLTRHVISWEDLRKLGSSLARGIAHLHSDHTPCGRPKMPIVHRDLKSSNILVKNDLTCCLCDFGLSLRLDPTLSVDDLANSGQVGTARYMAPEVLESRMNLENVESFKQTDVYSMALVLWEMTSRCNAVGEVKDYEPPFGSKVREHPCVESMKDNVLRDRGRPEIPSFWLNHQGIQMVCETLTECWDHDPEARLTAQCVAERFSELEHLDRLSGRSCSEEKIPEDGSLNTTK

As usually defined, the IC50 is the point on the concentration scale where inhibition reaches its midpoint. `CC(=O)Nc1cc(-c2[nH]c3c([C@@H](C)O)ccnc3c2-c2cccc(C(F)F)n2)ccn1` (single isomer, unassigned) [Example 146]: the IC50 at HIS-TGFβR1 T204D was 0.001 µM; on HIS-TGFβR2 WT, 1.78 µM. For `CC(=O)Nc1cc(-c2[nH]c3c([C@H](C)O)ccnc3c2-c2cccc(C(F)F)n2)ccn1` (single isomer, unassigned) [Example 147], in that order: 0.002 µM and 0.75 µM. For `COc1cccc(-c2c(-c3ccnc(NC(C)=O)c3)[nH]c3cccnc23)n1` [Example 2, N-{4-[3-(6-Methoxypyridin-2-yl)-1H-pyrrolo[3,2-b]pyridin-2-yl]pyridin-2-yl}acetamide], in that order: 0.006 µM and 7.85 µM. Regarding `CC(=O)Nc1cc(-c2[nH]c3cccnc3c2-c2cccc(Cl)n2)ccn1` [Example 3, N-{4-[3-(6-Chloropyridin-2-yl)-1H-pyrrolo[3,2-b]pyridin-2-yl]pyridin-2-yl}acetamide], the values for the IC50 at HIS-TGFβR1 T204D and on HIS-TGFβR2 WT were 0.001 µM and 0.089 µM, respectively. In the same order, the values of `CC(=O)Nc1cc(-c2[nH]c3cccnc3c2-c2ncccn2)ccn1` [Example 8, N-{4-[3-(Pyrimidin-2-yl)-1H-pyrrolo[3,2-b]pyridin-2-yl]pyridin-2-yl}acetamide] are 0.009 µM and 2.03 µM. As to `CC(=O)Nc1cc(-c2[nH]c3cccnc3c2-c2ccc(Cl)nc2)ccn1` [Example 9, N-{4-[3-(6-Chloropyridin-3-yl)-1H-pyrrolo[3,2-b]pyridin-2-yl]pyridin-2-yl}acetamide], the figures for the IC50 at HIS-TGFβR1 T204D and at HIS-TGFβR2 WT were 0.023 µM and 0.33 µM, respectively.

In the case of `CC(=O)Nc1cc(-c2[nH]c3cccnc3c2-c2cnc(F)c(F)c2)ccn1` [Example 10, N-{4-[3-(5,6-Difluoropyridin-3-yl)-1H-pyrrolo[3,2-b]pyridin-2-yl]pyridin-2-yl}acetamide], the IC50 on HIS-TGFβR1 T204D stood at 0.057 µM; at HIS-TGFβR2 WT, 0.01 µM. For `CC(=O)Nc1cc(-c2[nH]c3cccnc3c2-c2cnc(F)c(C)c2)ccn1` [Example 11, N-{4-[3-(6-Fluoro-5-methylpyridin-3-yl)-1H-pyrrolo[3,2-b]pyridin-2-yl]pyridin-2-yl}acetamide], in that order: 0.027 µM and 0.009 µM. As to `CC(=O)Nc1cc(-c2[nH]c3cccnc3c2-c2ccc(C#N)nc2)ccn1` [Example 12, N-{4-[3-(6-Cyanopyridin-3-yl)-1H-pyrrolo[3,2-b]pyridin-2-yl]pyridin-2-yl}acetamide], the IC50 turned out to be 0.058 µM at HIS-TGFβR1 T204D and 1.31 µM on HIS-TGFβR2 WT. In the same order, the values of `CC(=O)Nc1cc(-c2[nH]c3cccnc3c2-c2ccc(C(F)(F)F)nc2)ccn1` [Example 13, N-(4-{3-[6-(Trifluoromethyl)pyridin-3-yl]-1H-pyrrolo[3,2-b]pyridin-2-yl}pyridin-2-yl)acetamide] are 0.002 µM and over 15 µM. In the same order, the values of `CC(=O)Nc1cc(-c2[nH]c3cccnc3c2-c2cccc(C#N)n2)ccn1` [Example 15, N-{4-[3-(6-Cyanopyridin-2-yl)-1H-pyrrolo[3,2-b]pyridin-2-yl]pyridin-2-yl}acetamide] are 0.017 µM and 13.1 µM. For `CC(=O)Nc1cc(-c2[nH]c3cccnc3c2-c2cccc(F)n2)ccn1` [Example 16, N-{4-[3-(6-Fluoropyridin-2-yl)-1H-pyrrolo[3,2-b]pyridin-2-yl]pyridin-2-yl}acetamide], in that order: 0.002 µM and 0.087 µM. In the case of `CC(=O)Nc1cc(-c2[nH]c3cccnc3c2-c2ccc3cnccc3c2)ccn1` [Example 17, N-{4-[3-(Isoquinolin-6-yl)-1H-pyrrolo[3,2-b]pyridin-2-yl]pyridin-2-yl}acetamide], the IC50 at HIS-TGFβR1 T204D was 0.014 µM; at HIS-TGFβR2 WT, over 15 µM. For `CC(=O)Nc1cc(-c2[nH]c3cccnc3c2-c2cccc3ccncc23)ccn1` [Example 19, N-{4-[3-(Isoquinolin-8-yl)-1H-pyrrolo[3,2-b]pyridin-2-yl]pyridin-2-yl}acetamide], in that order: 0.023 µM and 0.19 µM. For `CC(=O)Nc1cc(-c2[nH]c3cccnc3c2-c2ccc3[nH]ccc3c2)ccn1` [Example 20, N-{4-[3-(1H-Indol-5-yl)-1H-pyrrolo[3,2-b]pyridin-2-yl]pyridin-2-yl}acetamide], in that order: 0.005 µM and 1.69 µM. For `CC(=O)Nc1cc(-c2[nH]c3cccnc3c2-c2cccc3cccnc23)ccn1` [Example 21, N-{4-[3-(Quinolin-8-yl)-1H-pyrrolo[3,2-b]pyridin-2-yl]pyridin-2-yl}acetamide], in that order: 1.49 µM and over 15 µM.

For `CC(=O)Nc1cc(-c2[nH]c3cccnc3c2-c2ccc3ncccc3c2)ccn1` [Example 22, N-{4-[3-(Quinolin-6-yl)-1H-pyrrolo[3,2-b]pyridin-2-yl]pyridin-2-yl}acetamide], the IC50 was 0.039 µM at HIS-TGFβR1 T204D and over 15 µM on HIS-TGFβR2 WT. Consider `CC(=O)Nc1cc(-c2[nH]c3cccnc3c2-c2ccc(F)c(C)n2)ccn1` [Example 23, N-{4-[3-(5-Fluoro-6-methylpyridin-2-yl)-1H-pyrrolo[3,2-b]pyridin-2-yl]pyridin-2-yl}acetamide], for which the IC50 on HIS-TGFβR1 T204D was found to be 0.003 µM; at HIS-TGFβR2 WT it was 0.68 µM. In the same order, the values of `CC(=O)Nc1cc(-c2[nH]c3cccnc3c2-c2cc(C)c(F)cn2)ccn1` [Example 24, N-{4-[3-(5-Fluoro-4-methylpyridin-2-yl)-1H-pyrrolo[3,2-b]pyridin-2-yl]pyridin-2-yl}acetamide] are 0.018 µM and 0.21 µM. For `COc1ncc(-c2c(-c3ccnc(NC(C)=O)c3)[nH]c3cccnc23)cn1` [Example 27, N-{4-[3-(2-Methoxypyrimidin-5-yl)-1H-pyrrolo[3,2-b]pyridin-2-yl]pyridin-2-yl}acetamide], the IC50 at HIS-TGFβR1 T204D was 0.72 µM; at HIS-TGFβR2 WT, over 15 µM. `CC(=O)Nc1cc(-c2[nH]c3cc(OC4COC4)cnc3c2-c2cccc(C(F)F)n2)ccn1` [Example 99, N-(4-(3-(6-(Difluoromethyl)pyridin-2-yl)-6-(oxetan-3-yloxy)-1H-pyrrolo[3,2-b]pyridin-2-yl)pyridin-2-yl)acetamide] came in with an IC50 on HIS-TGFβR2 WT of 2.75 µM.

For `[2H]C([2H])([2H])Oc1cnc2c(-c3cccc(C(F)F)n3)c(-c3ccnc(NC(C)=O)c3)[nH]c2c1` [Example 100, N-(4-(3-(6-(Difluoromethyl)pyridin-2-yl)-6-(methoxy-d3)-1H-pyrrolo[3,2-b]pyridin-2-yl)pyridin-2-yl)acetamide], the IC50 at HIS-TGFβR2 WT amounted to 2.62 µM. Same read-out and setting: in the case of `CCOc1cnc2c(-c3cccc(C(F)F)n3)c(-c3ccnc(NC(C)=O)c3)[nH]c2c1` [Example 101, N-(4-(3-(6-(Difluoromethyl)pyridin-2-yl)-6-ethoxy-1H-pyrrolo[3,2-b]pyridin-2-yl)pyridin-2-yl)acetamide] it was 4.29 µM; in that of `CC(=O)Nc1cc(-c2[nH]c3cc(OC(C)C)cnc3c2-c2cccc(C(F)F)n2)ccn1` [Example 102, N-(4-(3-(6-(Difluoromethyl)pyridin-2-yl)-6-isopropoxy-1H-pyrrolo[3,2-b]pyridin-2-yl)pyridin-2-yl)acetamide], 3.45 µM; in that of `COCC(C)Oc1cnc2c(-c3cccc(C(F)F)n3)c(-c3ccnc(NC(C)=O)c3)[nH]c2c1` (stereo not shown) [Example 103], 4.92 µM.

Consider `[2H]C([2H])([2H])Oc1ccc(-c2c(-c3ccnc(NC(C)=O)c3)[nH]c3cc(F)cnc23)nc1` [Example 106, N-(4-(6-Fluoro-3-(5-(methoxy-d3)pyridin-2-yl)-1H-pyrrolo[3,2-b]pyridin-2-yl)pyridin-2-yl)acetamide], for which the IC50 on HIS-TGFβR1 T204D ([…] nM HIS-TGFβR1 T204D, labeled probe at Kd, 1 hour room temperature, eleven concentrations) worked out at 0.003 µM. As to `CCc1ccnc2c(-c3cccc(C(F)F)n3)c(-c3ccnc(NC(C)=O)c3)[nH]c12` [Example 128, N-(4-{3-[6-(Difluoromethyl)pyridin-2-yl]-7-ethyl-1H-pyrrolo[3,2-b]pyridin-2-yl}pyridin-2-yl)acetamide], the IC50 on HIS-TGFβR2 WT was determined as 5.26 µM. On the same count and under the same terms, to `CC(=O)Nc1cc(-c2[nH]c3cc(Cl)cnc3c2-c2csc(C)n2)ccn1` [Example 181, N-(4-(6-Chloro-3-(2-methylthiazol-4-yl)-1H-pyrrolo[3,2-b]pyridin-2-yl)pyridin-2-yl)acetamide] belongs 1.07 µM; to `CC(=O)Nc1cc(-c2[nH]c3cc(F)cnc3c2-c2csc(C)n2)ccn1` [Example 207, N-(4-(6-Fluoro-3-(2-methylthiazol-4-yl)-1H-pyrrolo[3,2-b]pyridin-2-yl)pyridin-2-yl)acetamide], 5.65 µM; to `COc1cnc2c(-c3csc(C#N)n3)c(-c3ccnc(NC(C)=O)c3)[nH]c2c1` [Example 228, N-(4-(3-(2-Cyanothiazol-4-yl)-6-methoxy-1H-pyrrolo[3,2-b]pyridin-2-yl)pyridin-2-yl)acetamide], 4.24 µM. Still for that read-out and setting: in the case of `COc1ccnc2c(-c3nc(C(F)F)cs3)c(-c3ccnc(NC(C)=O)c3)[nH]c12` [Example 270, N-(4-(3-(4-(Difluoromethyl)thiazol-2-yl)-7-methoxy-1H-pyrrolo[3,2-b]pyridin-2-yl)pyridin-2-yl)acetamide] it was 7.55 µM. For the molecule `COc1ccnc2c(-c3cccc(F)n3)c(-c3ccnc(NC(C)=O)c3)[nH]c12` [Example 273, N-(4-(3-(6-Fluoropyridin-2-yl)-7-methoxy-1H-pyrrolo[3,2-b]pyridin-2-yl)pyridin-2-yl)acetamide], the IC50 on HIS-TGFβR2 WT amounted to 1.36 µM.

Source of the values: patent US9708316B2 (BRISTOL-MYERS SQUIBB COMPANY, priority 2014, dated 2017).
